Data reported in US20220408725A1, “NEW DEFOLIANT AND APPLICATION THEREOF” (CHENGDU NEWSUN CROP SCIENCE CO., LTD., priority 2020, published 2022).

System: pepper plants
Experiment: Pot spray test of defoliants on pepper plants (defoliation rate and fruit abscission rate)
Format: in vivo
Conditions: sprayed once
Procedure: 1 Test temperature and humidity
The defoliant listed in Table 1 is diluted to a certain extent for application. See Table 2 for the active constituents and dilution factor of the defoliant.
100X, 160X and 400X dilution of the C12-C14 fatty alcohol polyoxyethylene (5) ether refers to 100X, 160X and 400X dilution of the defoliant listed in Table 1 containing an active constituent of C12-C14 fatty alcohol polyoxyethylene (5) ether. 160X+1400X dilution of the C12-C14 fatty alcohol polyoxyethylene (5) ether+40% ethephon refers to 160X dilution of the defoliant listed in Table 1 containing an active constituent of C12-C14 fatty alcohol polyoxyethylene (5) ether and mixture with 40% ethephon subject to 1400X dilution, equivalent to that the mixed solution contains 0.5% of C12-C14 fatty alcohol polyoxyethylene (5) ether and 0.029% of ethephon.
A total of 7 treatment plots (including 1 for control group, with water) are arranged for the test, each including 5 pots.
Spray method. The test reagent is prepared according to the design requirements, and then applied once to each treatment plot by uniformly spraying it onto each pot as per 100 ml/m^2 of water consumption, while ensuring consistent spray onto each treatment plot and sufficient spray to cover the whole plant.
Investigating the total number of treated leaves and fruits of each plant before application of the reagent, and 3 days, 5 days, 7 days, 20 days and 25 days after the application, calculating the defoliation rate and observing the influence on fruits.
Adding fixedly 150 ml of water to each pot each time.
According to the investigated data, calculating the defoliation rate as per equation (1), in the unit of percentage (%), rounded to two decimal places.
(1) Defoliation rate (%)=(total number of treated leaves—number of remaining leaves)/total number of treated leaves.
(2) Corrected defoliation rate (%)=(defoliation rate of the treatment plot—defoliation rate of the control group)/(1-defoliation rate of the control group)*100.
If the defoliation rate of the control group <5%, correction is not required; otherwise, the result should be corrected as per equation (2).
(3) Fruit abscission rate (%)=(total number of treated fruits—number of remaining fruits)/total number of treated fruits.
The defoliation effect on the pepper plants is analyzed through comparison of the results of the pots before and after application of the reagent and the control group.

[1] = 100X dilution of Table 1 defoliant
[2] = 160X dilution of Table 1 defoliant
[3] = 400X dilution of Table 1 defoliant

Substance	Defoliation rate 3 days after application [1] [%]	Defoliation rate 5 days after application [1] [%]	Defoliation rate 7 days after application [1] [%]	Defoliation rate 20 days after application [1] [%]	Defoliation rate 25 days after application [1] [%]	Defoliation rate 3 days after application [2] [%]	Defoliation rate 5 days after application [2] [%]	Defoliation rate 7 days after application [2] [%]	Defoliation rate 20 days after application [2] [%]	Defoliation rate 25 days after application [2] [%]	Defoliation rate 3 days after application [3] [%]	Defoliation rate 5 days after application [3] [%]	Defoliation rate 7 days after application [3] [%]	Defoliation rate 20 days after application [3] [%]	Defoliation rate 25 days after application [3] [%]
C12-C14 fatty alcohol polyoxyethylene (5) ether [Treatment 1]	60.03	78.72	94.97	69.9	18.42	66.25	70.63	79.71	73.64	51.64	−1.46	4.66	14.5	26.17	17.95
Full branched-chain C12 fatty alcohol polyoxyethylene (5) ether [Treatment 2]	72.15	87.4	100	84.33	75.8	74.69	85.12	93.59	72.18	18.07	5.58	16.17	21.83	32.56	7.88
Isomeric C13 fatty alcohol polyoxyethylene (5) ether [Treatment 4]	23.88	40.42	66.7	64.66	16.35	14.35	16.59	25.25	27.79	7.78	−3.15	−2.02	5.81	8.88	−2.16
Straight-chain C12-14 fatty alcohol polyoxyethylene (5) ether [Treatment 3]	54.46	68.84	86.02	69.02	35.12	38.84	43.16	64.73	56.79	35.09	6.99	10.84	15.88	27.07	8.36
